In patent US20090089889A9, “Neuromedin u receptor subtype 1 deficient transgenic mice and uses thereof” (priority 2006, published 2009):
Entries after “also recorded” stand apart in the source; their conditions may differ. Where no end group is shown, it is not given here.

Legend:
Format in all cases: in vivo, mouse
C57BL/6 mice [1] = experiment: Acute nocturnal feeding study, central (i.c.v.) NMU in wild-type mice; conditions: measured 2 h later
Description: (§1) FIG. 2A describes results from an experiment where C57BL/6 mice were dosed intracerebronventricularly (i.c.v) with either vehicle (aCSF) or NMU ˜30 min. prior to the onset of the dark phase and food intake was measured 2 h later. *, P<0.05 vs. vehicle; n=12-24 per group. In FIG. 2B, Nmur1 or Nmur2 mice were dosed i.c.v. with either vehicle (aCSF) or 3 μg NMU ˜30 min. prior to the onset of the dark phase and food intake was measured 2 h later. *, P<0.05 vs. corresponding vehicle; #, P<0.05 vs. Nmur2+/+, NMU; n=14 per treatment group.
(§2) Mice were anesthetized with an intramuscular (im) injection of ketamine (100 mg/kg) and domitor (0.75 mg/kg) and placed in a stereotactic device (Kopf Instruments). […]
(§3) For acute nocturnal feeding studies, ad libitum fed male mice maintained on regular chow were weighed and dosed either intraperitoneally (ip) or icv ˜30 min prior to the onset of the dark phase of the light cycle and provided with a preweighed aliquot of chow which was then weighed two and 18 hours (overnight) after the onset of the dark phase. […] For chronic feeding studies, ad libitum fed male mice normally maintained on regular chow were switched to a palatable moderate fat diet at the initiation of treatment and food intake and body weight were measured daily.

Nmur2−/− mice [2] = experiment: Acute central (i.c.v.) NMU administration in NMUR2 knockout mice; conditions: i.c.v. 3 μg NMU, 2 h
Description: as §1, §2, §3

C57BL/6 mice [3] = experiment: 7-day chronic s.c. infusion via Alzet micro-osmotic pumps; conditions: C57BL/6 mice, 0.3, 1, 3 or 10 mpk NMU/day s.c. infusion for 7 days
Excerpt: FIG. 3 describes the results from treatment of C57BL/6 mice with either vehicle (H2O); 0.3, 1, 3 or 10 mpk NMU/day; or 10 mpk MTII/day for 7 days via Alzet micro-osmotic pumps implanted sc in the intrascapular space. 7-day cumulative effects on body weight (A), adiposity (B) and food intake (C). *, P<0.05 vs. Vehicle; n=4-10 per treatment group.
(§4) Immediately following surgery, mice were given an im injection of atapimazole. Five days following the initial surgery, mice were again anesthetized and placed in the stereotactic device. Micro-osmotic pumps were removed and replaced with mini-osmotic pumps designed to deliver 0.5 μl/h (Alza Co.) and filled with either aCSF or mouse NMU-23 (Mimotopes) or MTII (Bachem) dissolved in aCSF. The pH of all solutions was adjusted to ˜7 with NaOH. Immediately following surgery, mice were given an im injection of atapimazole. For chronic sc infusions studies, mice were anesthetized and then a micro-osmotic pump designed to deliver 0.5 μl/h and filled with either sterile H2O or mouse NMU-23 (Mimotopes) or MTII (Bachem) dissolved in sterile H2O was implanted subcutaneously in the intrascapular space. The pH of all solutions was adjusted to ˜7 with NaOH. Immediately following surgery, mice were given an im injection of atapimazole.
as §3
Whole body composition analysis of conscious live mice was conducted using a Quantitative Magnetic Resonance (QMR) method (EchoMRI™, Echo Medical Systems, Houston, Tex.) (Tinsley et al. (2004) Obesity Research 12:150). […]

Nmur1−/− mice [4] = experiment: Acute NMU administration (peripheral, i.p.) in NMUR1 knockout mice
Description: (§5) Food intake (FIG. 1A) and body weight (FIG. 1B) were measured in C57BL/6 mice dosed intraperitoneally (i.p.) either with vehicle (saline) or with NMU approximately 30 minutes prior to onset of darkness. Measurements were taken about 18 hours later. * indicates p value of <0.05, n=6 per treatment group. In FIGS. 1C and 1D, food intake and body weight are measured in Nmur1 and Nmur2 mice dosed ip with either saline or 30 mg/kg (mkg) NMU about 30 minutes prior to the onset of the dark phase. Measurements were taken 18 hrs later. *, P<0.05 vs. saline, n=6 per treatment group. Nmur1 or Nmur2 mice were dosed i.p. with either vehicle (saline) or 30 mpk NMU ˜30 min. prior to the onset of the dark phase and food intake (C) and body weights (D) were measured 18 h (overnight) later. *, P<0.05 vs. corresponding vehicle; #, P<0.05 vs. Nmu1r+/+, NMU; $, P=0.052; n=10 per treatment group.
Nmur1 knockout (Nmur1^−/−) mice were generated using standard homologous recombination techniques. Briefly, a mouse genomic DNA library was screened with a mouse Nmur1mur cDNA probe, which was generated by PCR. One positive clone was isolated. Two regions of the clone were subcloned into pKO Scrambler NTKV-1904 (Stratagene) and a targeting vector was generated. The targeting vector was linearized by NotI restriction enzyme digestion and transformed into AB2.1 embryonic stem (ES) cells by electroporation with a Bio-Rad Gene Pulser. Transfected cells were cultured with G418 and FIAU for positive and negative selections, respectively. Approximately 500 clones were selected, and 20 correctly targeted ES cell clones were identified by Southern blot analysis. Five correctly targeted ES clones were injected into C57BL/6 blastocysts and these were implanted into pseudopregnant female mice. Several chimeric progeny gave germ-line transmission of the mutant NMUR1 allele and one NMUR1^−/− was established. F3 hybrid mice were used in all experiments
(§6) The Nmur1 mice were maintained on a 50% C57BL/6×50% 129S6/SvEv background and Nmur2 mice (licensed from Deltagen) on a 75% C57BL/6×25% 129/OlaHsd background. For comparison with wild-type, 10-12 week-old male C57BL/6 mice were purchased from Taconic Farms. Mice were individually housed in Tecniplast cages in a conventional SPF facility. Mice were maintained on either regular chow (Teklad 7012: 13.4% kcal from fat; Harlan Teklad), a moderate fat diet (D12266B: 32% kcal from fat; Research Diets, Inc.) or, to induce obesity (DIO), a high fat diet (D12492: 60% kcal from fat; Research Diets, Inc.) with ad libitum access to water in a 12-h light/12-h dark cycle, unless stated otherwise.
(§7) For acute nocturnal feeding studies, ad libitum fed male mice maintained on regular chow were weighed and dosed either intraperitoneally (ip) or icv ˜30 min prior to the onset of the dark phase of the light cycle and provided with a preweighed aliquot of chow which was then weighed two and 18 hours (overnight) after the onset of the dark phase. Mice were again weighed at the later time point. For chronic feeding studies, ad libitum fed male mice normally maintained on regular chow were switched to a palatable moderate fat diet at the initiation of treatment and food intake and body weight were measured daily.

[5] = test system: diet-induced obese C57BL/6 mice; experiment: Core body temperature after acute i.p. dosing of fasted diet-induced obese mice; conditions: overnight fasted DIO C57BL/6 mice, i.p. 0.3, 1, 3 or 10 mpk NMU, 6 h monitoring
Description: FIG. 5 presents the results of an experiment where overnight fasted diet-induced obese C57BL/6 mice were dosed i.p. with either vehicle (saline); 0.3, 1, 3 or 10 mpk NMU; or 5 mpk MTII. Core temperature is plotted as change from vehicle baseline. A, hourly change. B, 6-h cumulative change.
Body temperature changes were measured as well. Male diet-induced obese mice maintained on a high fat diet were implanted with Mini-Mitter transmitters (Mini Mitter, Bend, Oreg.) prior to the study. Temperature recordings were initiated one day prior to dosing. Mice were fasted overnight and then the following morning 3 h after the onset of the light phase mice were dosed ip. Core body temperature was monitored for 6 h following dosing.

DIO mice = experiment: 13-day chronic subcutaneous infusion in DIO mice
Description: as §4, §6

Nmur2−/− mice [6] = experiment: Acute peripheral (i.p.) NMU administration in NMUR2 knockout mice; conditions: peripherally administered NMU
Description: as §5
(§8) The Nmur1 mice were maintained on a 50% C57BL/6×50% 129S6/SvEv background and Nmur2 mice (licensed from Deltagen) on a 75% C57BL/6×25% 129/OlaHsd background. For comparison with wild-type, 10-12 week-old male C57BL/6 mice were purchased from Taconic Farms. Mice were individually housed in Tecniplast cages in a conventional SPF facility. […]

C57BL/6 mice [7] = experiment: 14-day chronic i.c.v. infusion via Alzet mini-osmotic pumps
Description: FIG. 4 depicts treatment of C57BL/6 mice with either vehicle (aCSF); 12, 36 or 120 μg NMU/day; or 4.8 μg MTII/day for 14 days via Alzet mini-osmotic pumps implanted subcutaneously in the intrascapular space and connected with a catheter to a permanent indwelling i.c.v cannula implanted in the dorsal third cerebroventricle. 14-day cumulative effects on body weight (A), adiposity (B) and food intake (C). *, P<0.05 vs. vehicle; n=5-8 per group.
Mice were anesthetized with an intramuscular (im) injection of ketamine (100 mg/kg) and domitor (0.75 mg/kg) and placed in a stereotactic device (Kopf Instruments). For acute i.c.v. studies, a 26-gauge single acute guide cannula (Plastics One) was implanted into the dorsal third cerebral ventricle (0.22 mm posterior, 0.3 mm lateral and 3.3 mm ventral to bregma) and secured to the skull with cyanoacrylate adhesive followed by dental cement. Following surgery, a 33-gauge dummy cannula (Plastics One) was inserted into each guide cannula and mice were given an im injection of atapimazole (5 mg/kg). All cannulated mice were given one week of postoperative recovery, during which time they were handled daily to minimize nonspecific stress. All substances were administered to conscious mice with a repeating dispenser (Hamilton) equipped with a 50-μl Hamilton syringe and 33-gauge needle designed to extend 0.1-0.2 mm beyond the tip of the guide cannula. Mouse NMU-23 (Phoenix Pharmaceuticals) was dissolved in artificial cerebrospinal fluid (aCSF; Harvard Apparatus) and adjusted the pH to ˜7 with NaOH. All substances were injected in a total volume of 1 μl. Mice were given at least a 48-h recovery period between treatments. All acute icv injection studies were of crossover design, a paradigm in which mice initially treated with vehicle are subsequently treated with the agent of interest dissolved in vehicle and vice versa. For chronic icv studies, a 28-gauge osmotic pump connector cannula (Plastics One) was implanted into the dorsal third cerebral ventricle and secured to the skull. Then a micro-osmotic pump designed to deliver 0.5 μl/h (Alza Co.) and filled with aCSF was implanted subcutaneously in the intrascapular space and connected with vinyl tubing to the osmotic pump connector cannula.
as §4
as §7, with “daily. […]” for “daily.”

Nmur1−/− mice [8] = experiment: Acute central (i.c.v.) NMU administration in NMUR1 knockout mice; conditions: centrally administered NMU
Description: as §1, §2, §3

C57BL/6 mice [9] = experiment: Acute nocturnal feeding study, peripheral (i.p.) NMU in wild-type mice; conditions: i.p. (peripheral) ~30 min before dark phase, measured 18 h later
Description: as §5, §8
All resultant measurement values were reported as mean±S.E.M. and data was analyzed by the two-tailed unpaired Student's t test. […]

[10] = test system: lean and DIO C57BL/6 mice; experiment: Ad libitum food intake of lean and DIO mice after rat NMU peptide
Description: as §7

[11] = Nmur1−/− transgenic mice, mouse NMU-23 peptide administration, route not stated
[12] = C57BL/6 mice, 12, 36 or 120 μg NMU/day i.c.v. infusion for 14 days
[13] = C57BL/6 mice, 12, 36 or 120 μg NMU/day i.c.v. infusion for 14 days, listed as mouse NMU-23

**Q.** “NMU: Mouse NMU-23 neuromedin U peptide (Phoenix Pharmaceuticals, Mimotopes), agonist of NMUR1 and NMUR2 (FKAEYQSPSVGQSKGYFLFRPRN; ends and bridges not checked; UniProt Q9QXK8 144-166, looked up)” was tested. Which food intake (C57BL/6 mice [1]) did it give?
**A.** reduces

**Q.** What about the “food intake (anorectic action)” value (Nmur2−/− mice [2]) of the same substance?
**A.** do not show the same reduction; also recorded: absent

**Q.** What about the “adiposity, 7-day cumulative” value (C57BL/6 mice [3]) of the same substance?
**A.** dose-dependent effects; also recorded: reduces

**Q.** What about the “body weight, 7-day cumulative” value (C57BL/6 mice [3]) of the same substance?
**A.** dose-dependent effects; also recorded: reduces

**Q.** What about the “food intake, 7-day cumulative” value (C57BL/6 mice [3]) of the same substance?
**A.** dose-dependent effects; also recorded: reduces

**Q.** What about the body weight (Nmur1−/− mice [4]; Nmur1 knockout mice, peripheral (i.p.) 30 mpk NMU, 18 h) of the same substance?
**A.** not seen

**Q.** What about the “food intake (anorectic action)” value (Nmur1−/− mice [4]; Nmur1 knockout mice, peripheral (i.p.) 30 mpk NMU, 18 h, 30 mg/kg) of the same substance?
**A.** not seen; also recorded: absent

**Q.** What about the body temperature (Nmur1−/− mice [4]; [11]) of the same substance?
**A.** largely unaffected

**Q.** What about the body weight (Nmur1−/− mice [4]; [11]) of the same substance?
**A.** largely unaffected

**Q.** What about the food intake (Nmur1−/− mice [4]; [11]) of the same substance?
**A.** largely unaffected

**Q.** And the “core body temperature (change from vehicle baseline)” value [5]?
**A.** dose-dependent effect; also recorded: dose-dependently increases

**Q.** And the body weight (DIO mice)?
**A.** demonstrable effects

**Q.** What about the core temperature (DIO mice) of the same substance?
**A.** demonstrable effects

**Q.** And the food intake (DIO mice)?
**A.** demonstrable effects

**Q.** What about the “anorectic actions (food intake)” value (Nmur2−/− mice [6]) of the same substance?
**A.** present

**Q.** And the body composition (C57BL/6 mice [7]; 14-day chronic i.c.v. infusion)?
**A.** Effects are also seen

**Q.** What about the “adiposity, 14-day cumulative” value (C57BL/6 mice [7]; [12]) of the same substance?
**A.** dose-dependent cumulative effects; also recorded: reduces

**Q.** What about the “body weight, 14-day cumulative” value (C57BL/6 mice [7]; [12]) of the same substance?
**A.** dose-dependent cumulative effects; also recorded: reduces

**Q.** What about the “food intake, 14-day cumulative” value (C57BL/6 mice [7]; [12]) of the same substance?
**A.** dose-dependent cumulative effects; also recorded: reduces

**Q.** And the “body weight, 14-day cumulative” value (C57BL/6 mice [7]; [13])?
**A.** Effects are also seen

**Q.** What about the “food intake, 14-day cumulative” value (C57BL/6 mice [7]; [13]) of the same substance?
**A.** Effects are also seen

**Q.** And the “anorectic actions (food intake)” value (Nmur1−/− mice [8])?
**A.** present

**Q.** And the body weight (C57BL/6 mice [9])?
**A.** dose-dependent reduction

**Q.** And the food intake (C57BL/6 mice [9])?
**A.** dose-dependent reduction; also recorded: reduces

**Q.** For “rNMU-23: a rat NMU peptide (YKVNEYQGPVAPSGGFFLFRPRN; ends and bridges not checked; UniProt P12760 144-166, looked up)”, which “ad libitum food intake” value [10] is on record?
**A.** mimic those of the mouse isoform
